In ChEMBL document CHEMBL1201862, “PubChem BioAssay data set” (2004):
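Each compound was tested at five concentrations against cells in 96-well plates for 48 hours. The concentration for 50% growth inhibition is given as GI50.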 The source made the active and inactive calls. Rule as the data show it: active = GI50 up to about 1.1 µM and inactive = higher.

Experiments:
Test in all cases: inhibition of tumour cell growth, NCI panel, 48 h
UO-31 = tested on: UO-31
UACC-62 = tested on: UACC-62
OVCAR-3 = tested on: OVCAR-3
A549 = tested on: A549
NCI-H522 = tested on: NCI-H522
MDA-MB-231 = tested on: MDA-MB-231
NCI/ADR-RES = tested on: NCI/ADR-RES
SW-620 = tested on: SW-620
NCI-H226 = tested on: NCI-H226
U-251 = tested on: U-251
CCRF-CEM = tested on: CCRF-CEM
RXF 393 = tested on: RXF 393
Hs-578T = tested on: Hs-578T
OVCAR-4 = tested on: OVCAR-4
OVCAR-5 = tested on: OVCAR-5
DU-145 = tested on: DU-145
NCI-H460 = tested on: NCI-H460
SK-MEL-5 = tested on: SK-MEL-5
T47D = tested on: T47D
A498 = tested on: A498
EKVX = tested on: EKVX
NCI-H23 = tested on: NCI-H23
BT-549 = tested on: BT-549
M14 = tested on: M14
SN12C = tested on: SN12C
HT-29 = tested on: HT-29
SK-OV-3 = tested on: SK-OV-3
HL-60 = tested on: HL-60
HCC 2998 = tested on: HCC 2998
K562 = tested on: K562
KM12 = tested on: KM12
MDA-MB-435 = tested on: MDA-MB-435
TK-10 = tested on: TK-10
786-0 = tested on: 786-0
SF-539 = tested on: SF-539
SNB-75 = tested on: SNB-75
SNB-19 = tested on: SNB-19
MCF7 = tested on: MCF7
SF-268 = tested on: SF-268
OVCAR-8 = tested on: OVCAR-8
MOLT-4 = tested on: MOLT-4
SK-MEL-28 = tested on: SK-MEL-28
IGROV-1 = tested on: IGROV-1
UACC-257 = tested on: UACC-257
RPMI-8226 = tested on: RPMI-8226
CAKI-1 = tested on: CAKI-1
SK-MEL-2 = tested on: SK-MEL-2
SR = tested on: SR
HCT-15 = tested on: HCT-15
MDA-N = tested on: MDA-N
COLO 205 = tested on: COLO 205
PC-3 = tested on: PC-3
Malme-3M = tested on: Malme-3M
HCT-116 = tested on: HCT-116
LOX IMVI = tested on: LOX IMVI

Measured: GI50

CSc1c(C#N)c(S)[nH]c(=O)c1C#N
inactive: UO-31 18.7 µM | UACC-62 21.2 µM | OVCAR-3 33.8 µM | A549 40.7 µM | NCI-H522 8.34 µM | MDA-MB-231 42.8 µM | NCI/ADR-RES 43.2 µM | SW-620 48.9 µM | NCI-H226 30.3 µM | U-251 > 100 µM | CCRF-CEM 55.5 µM | RXF 393 26.1 µM | Hs-578T 24.2 µM | OVCAR-4 10.4 µM | OVCAR-5 > 100 µM | DU-145 48 µM | NCI-H460 97.7 µM | SK-MEL-5 9.91 µM | T47D 24.9 µM | A498 38.2 µM | EKVX 29.6 µM | NCI-H23 23.7 µM | BT-549 40.5 µM | M14 24.5 µM | SN12C 85.5 µM | HT-29 25.4 µM | SK-OV-3 > 100 µM | HL-60 1.85 µM | HCC 2998 36.2 µM | K562 18.1 µM | KM12 65.8 µM | MDA-MB-435 20.6 µM | TK-10 23.2 µM | 786-0 71.8 µM | SF-539 > 100 µM | SNB-75 32.1 µM | SNB-19 58.5 µM | MCF7 37.9 µM | SF-268 32.7 µM | OVCAR-8 47.2 µM | MOLT-4 33 µM | SK-MEL-28 46.1 µM | IGROV-1 22.8 µM | UACC-257 35.8 µM | RPMI-8226 3.89 µM | CAKI-1 > 100 µM | SK-MEL-2 13.7 µM | SR 51.2 µM | MDA-N 24.4 µM | COLO 205 31.9 µM | PC-3 29.4 µM | Malme-3M 7.14 µM | HCT-116 34.4 µM | LOX IMVI 37.1 µM
44.4 µM: HCT-15
